Laboratory results from patent US20100190755A1, “TETRACYCLINE COMPOUNDS FOR THE TREATMENT OF RHEUMATOID ARTHRITIS AND RELATED METHODS OF TREATMENT” (priority 2008, published 2010).
≈ marks a conversion by molar mass, not a printed value.

Columns and labels:
[1] = Pharmacokinetics in rats after i.v. and oral dosing; format: in vivo; conditions: plasma, rat
Procedure: Pre-cannulated (jugular vein and carotid artery for i.v. group and carotid artery for oral group) male CD/IGS rats (approximately 250 g) were used. Rats were fasted overnight prior to dosing with access to food restored 2 hours after dosing. Rats were administered with approximately 0.25 mL compound (1 mg/kg dose) for i.v. route (via jugular vein over 20 seconds) or 0.5 mL solution (5 mg/kg dose) orally. Blood (300 μL) was collected in tubes with EDTA anticoagulant at various time points, centrifuged and plasma collected and stored frozen at −20° C. Animals were euthanized by CO2 following the final blood collection. Plasma was extracted (0.1% trifluoroacetic acid in 67% acetonitrile/33% water) and levels of compound quantified by HPLC/MS against a standard curve.

[2] = system: S. aureus RN450; experiment: Antibacterial activity MIC, Gram+ (Table 9); format: cell-based; conditions: Staphylococcus aureus, CAMHB, 35° C., approximately 18 hr
Procedure: (§1) 2 mg of each compound is dissolved in 100 μl of DMSO. The solution is then added to cation-adjusted Mueller Hinton broth (CAMHB), which results in a final compound concentration of 200 μg per ml. The tetracycline compound solutions are diluted to 50 μL volumes, with a test compound concentration of 0.098 μg/ml. Optical density (OD) determinations are made from fresh log-phase broth cultures of the test strains. Dilutions are made to achieve a final cell density of 1×10^6 CFU/ml. At OD=1, cell densities for different genera should be approximately:
(§2) 50 μl of the cell suspensions are added to each well of microtiter plates. The final cell density should be approximately 5×10^5 CFU/ml. These plates are incubated at 35° C. in an ambient air incubator for approximately 18 hr. The plates are read with a microplate reader and are visually inspected when necessary. The MIC is defined as the lowest concentration of the tetracycline compound that inhibits growth.

[3] = system: collagen-induced arthritis (CIA) in male DBA/1 mice; experiment: Murine collagen-induced arthritis (CIA) model, Example 2; format: in vivo, mouse
Procedure: Four non-antibacterial analogues of minocycline (J, W, AF and AT) were synthesized and tested in the murine model of the disease, collagen-induced arthritis (CIA) (See supra). Male DBA/1 mice were immunized intradermally with 200 μg of bovine type II collagen and boosted with collagen three weeks later. Minocycline and four non-antibacterial minocycline derivatives were administered i.p. beginning after disease onset. Paw thickness was measured and animals were scored daily.
(§3) • 1. Male DBA/1 mice were immunized i.d. with an emulsion of 200 μg bovine type II collagen in Complete Freund's Adjuvant. • 2. On day 21, mice received i.d. boost of 100 μg collagen in Incomplete Freund's Adjuvant • 3. Compounds were administered i.p. daily for 7 days starting from disease onset (day 3-4 after boost). • 4. Foot swelling was measured by an engineering micrometer and disease severity was scored accordingly (1, erythema and mild swelling confined to the tarsal or ankle joint; 2, erythema and mild swelling extending from the ankle to the mid-foot; 3, erythema and moderate swelling extending from the ankle to the metatarsal joints; 4, erythema and severe swelling encompassing the ankle, foot, and digits). • 5. Change (Δ) of paw thickness=sum of paw thickness from 4 paws of a mouse (experimental)−sum of baseline paw thickness from 4 paws of the same mouse. • 6. % inhibition=cumulative A paw thickness (disease group−compound-treated group)/cumulative A paw thickness (disease group)

[4] = system: E. coli 25922; experiment: Antibacterial activity MIC, Gram- (Table 9); format: cell-based; conditions: Escherichia coli, CAMHB, 35° C., approximately 18 hr
Procedure: as §1, §2

[5] = system: collagen-induced arthritis (CIA) in male DBA/1 mice; experiment: CIA model, Example 3 (cumulative scores vs untreated controls); format: in vivo; conditions: Mus musculus; Dose 25 mg/kg
Procedure: The CIA model data were acquired according to the following protocol: • 1. Male DBA/1 mice were anaesthetized by i.p. injection of ketamine/xylazine (1.25 mg/ml:0.25 mg/ml, 100 μl/mouse). • 2. Anaesthetized mice were immunized intradermally at the base of the tail with 0.1 or 0.2 ml of an emulsion composed of 100 or 200 μg bovine type II collagen in Complete Freund's Adjuvant (50 μl/spot x 2 or 4 spots). • 3. At day 21 after the immunization, mice received an intradermal boost of 100 μl of an emulsion composed of 100 μg bovine type II collagen in Incomplete Freund's Adjuvant (50 μl/spot x 2 spots) • 4. After onset of disease symptoms (usually 3-4 days after boost), tetracycline derivatives were administered daily into mice via intraperitoneal or oral routes for 8 to 15 days. Methotrexate (12 mg/kg/day) or dexmethasone (4 mg/kg/day) was used as a control for inflammation suppression. • 5. The disease severity was scored daily for 8-15 days after the appearance of the symptoms. Disease severity was graded as following: • a. Visual clinical score for the presence of inflammation in the fingers/toes of the forepaws and hindpaws: • 1. Erythema and mild swelling confined to the mid-foot (tarsals) or ankle joint • 2. Erythema and mild swelling extending from the ankle to the mid-foot • 3. Erythema and moderate swelling extending from the ankle to the metatarsal joints • 4. Erythema and severe swelling encompassing the ankle, foot, and digits. • b. Clinical swelling score for the presence of paw edema in the forepaws and hindpaws: • Paw thickness was measured daily by an engineering micrometer after isofluorane inhalation or ketamine/xylazine (1.25 mg/ml:0.25 mg/ml, 100 μl/mouse) i.p. injection.
Daily scores and paw swelling measurements for each treatment group of mice were added over the total observation period to obtain a cumulative score. Cumulative scores were compared between untreated controls and treated groups to determine tetracycline-induced inhibition.

[6] = system: IL-1; experiment: Paw extract biomarker ELISA, CIA mice: IL-1; format: in vivo, mouse; conditions: paw extracts from CIA mice
Procedure: as §3
(§4) • 1. Paws were collected from mice after 5-7 days of dosing and dissected free of skin. • 2. The paws were then homogenized in ice-cold PBS (2 ml/4 paws/mouse) containing 1× protease inhibitor using a Polytron homogenizer. • 3. Debris and particles were removed from the homogenized samples by centrifugation. • 4. Liquid layers were collected for MMP-9, IL-1, IL-6, RANKL, MCP-1, and TNFα analysis using ELISA kits from R & D System.

[7] = system: MCP-1; experiment: Paw extract biomarker ELISA, CIA mice: MCP-1; format: in vivo, mouse; conditions: paw extracts from CIA mice
Procedure: as §3, §4

[8] = system: MMP-9; experiment: Paw extract biomarker ELISA, CIA mice: MMP-9; format: in vivo, mouse; conditions: paw extracts from CIA mice
Procedure: as §3, §4

[9] = system: RANKL; experiment: Paw extract biomarker ELISA, CIA mice: RANKL; format: in vivo, mouse; conditions: paw extracts from CIA mice
Procedure: as §3, §4

[10] = system: E. coli ATCC25922 (tetracycline sensitive); experiment: E. coli MIC, broth micro-dilution per CLSI guidelines (Table 3); format: cell-based; conditions: Escherichia coli; E. coli ATCC25922, cation-adjusted Mueller Hinton broth
[11] = system: IL-6; experiment: Paw extract biomarker ELISA, CIA mice: IL-6; format: in vivo, mouse; conditions: paw extracts from CIA mice
Procedure: as §3, §4

[12] = system: cytokines (IL-1, IL-6, RANKL and MCP-1) and a matrix metalloproteinase (MMP-9); experiment: Paw extract biomarker ELISA, CIA mice: whole panel (statements in words); format: in vivo, mouse
Procedure: as §3, §4

[13] = 25 mg/kg/day i.p., dosed after disease onset

Structure (SMILES): CN(C)c1ccc(O)c2c1C[C@H]1C[C@H]3[C@H](N(C)C)C(O)=C(C(N)=O)C(=O)[C@@]3(O)C(O)=C1C2=O [Minocycline, minocycline, reference compound]
- bioavailability ([1]; male, CD/IGS, after oral dosing of 5 mg/kg, read-out: PK Parameters (Rat) % F, fraction of absorption): 31%
- half-life ([1]; male CD/IGS rats, 1 mg/kg i.v. or 5 mg/kg oral, read-out: PK Parameters (Rat) T1/2 (converted)): 3.6 h
- MIC [2]: 0.06 mg/L (≈ 0.131 µM)
- % Inhibition (Change in Paw Thickness) AVG [3, 13]: 22%
- % Inhibition (Clinical Score) AVG [3, 13]: 18%
- inhibition of the disease (CIA) ([3]; 50 mg/kg/day i.p.): 45%
- EC50 in inflammation suppression in CIA mice ([3]; CIA mice, i.p. daily): >50 mg/kg/day i.p.
- Change in Paw Thickness (mm) Mean ([3]; day 1 of dosing, 25 mg/kg/day i.p.): 0.74 mm
- Change in Paw Thickness (mm) Mean ([3]; day 2 of dosing, 25 mg/kg/day i.p.): 0.72 mm
- Change in Paw Thickness (mm) Mean ([3]; day 3 of dosing, 25 mg/kg/day i.p.): 0.78 mm
- Change in Paw Thickness (mm) Mean ([3]; day 4 of dosing, 25 mg/kg/day i.p.): 0.86 mm
- Change in Paw Thickness (mm) Mean ([3]; day 5 of dosing, 25 mg/kg/day i.p.): 0.93 mm
- Change in Paw Thickness (mm) Mean ([3]; day 6 of dosing, 25 mg/kg/day i.p.): 1.07 mm
- Change in Paw Thickness (mm) Mean ([3]; day 7 of dosing, 25 mg/kg/day i.p.): 0.92 mm
- Change in Paw Thickness (mm) Mean ([3]; day 8 of dosing, 25 mg/kg/day i.p.): 1.18 mm
- MIC [4]: 1 mg/L (≈ 2.19 µM)
- inhibition in vivo at 25 mg/kg [5]: 22%
- Percent level of Biomarker Tissue [c] Compared to Untreated Control, IL-1 AVG [6]: 119%
- Percent level of Biomarker Tissue [c] Compared to Untreated Control, MCP-1 AVG [7]: 102%
- Percent level of Biomarker Tissue [c] Compared to Untreated Control, MMP-9 AVG [8]: 104%
- Percent level of Biomarker Tissue [c] Compared to Untreated Control, RANKL AVG [9]: 99%
- MIC [10]: 1 mg/L (≈ 2.19 µM)
- Percent level of Biomarker Tissue [c] Compared to Untreated Control, IL-6 AVG [11]: 114%

Structure (SMILES): CN(Cc1cnc2nc(N)nc(N)c2n1)c1ccc(C(=O)N[C@@H](CCC(=O)O)C(=O)O)cc1 [Methotrexate, methotrexate, reference compound]
- Footpad tissue levels of cytokines (IL-1, IL-6, RANKL and MCP-1) and MMP-9 after therapeutic treatment [12]: decreased
- % Inhibition (Change in Paw Thickness) AVG ([3]; 12 mg/kg): 45%
- % Inhibition (Clinical Score) AVG ([3]; 12 mg/kg): 25%
- Change in Paw Thickness (mm) Mean ([3]; day 1 of dosing, 12 mg/kg/day i.p.): 0.77 mm
- Change in Paw Thickness (mm) Mean ([3]; day 2 of dosing, 12 mg/kg/day i.p.): 0.68 mm
- Change in Paw Thickness (mm) Mean ([3]; day 3 of dosing, 12 mg/kg/day i.p.): 0.71 mm
- Change in Paw Thickness (mm) Mean ([3]; day 4 of dosing, 12 mg/kg/day i.p.): 0.68 mm
- Change in Paw Thickness (mm) Mean ([3]; day 5 of dosing, 12 mg/kg/day i.p.): 0.67 mm
- Change in Paw Thickness (mm) Mean ([3]; day 6 of dosing, 12 mg/kg/day i.p.): 0.56 mm
- Change in Paw Thickness (mm) Mean ([3]; day 7 of dosing, 12 mg/kg/day i.p.): 0.45 mm
- Change in Paw Thickness (mm) Mean ([3]; day 8 of dosing, 12 mg/kg/day i.p.): 0.28 mm
- Percent level of Biomarker Tissue [c] Compared to Untreated Control, IL-1 AVG [6]: 16%
- Percent level of Biomarker Tissue [c] Compared to Untreated Control, MCP-1 AVG [7]: 37%
- Percent level of Biomarker Tissue [c] Compared to Untreated Control, MMP-9 AVG [8]: 52%
- Percent level of Biomarker Tissue [c] Compared to Untreated Control, IL-6 AVG [11]: 20%

Structure (SMILES): C[C@@H]1C[C@H]2[C@@H]3CCC4=CC(=O)C=C[C@]4(C)[C@@]3(F)[C@@H](O)C[C@]2(C)[C@@]1(O)C(=O)CO [Dexamethasone, dexamethasone, reference compound]
- % Inhibition (Change in Paw Thickness) AVG ([3]; 4 mg/kg): 82%
- % Inhibition (Clinical Score) AVG ([3]; 4 mg/kg): 48%
- Change in Paw Thickness (mm) Mean ([3]; day 1 of dosing, 4 mg/kg/day i.p.): 0.92 mm
- Change in Paw Thickness (mm) Mean ([3]; day 2 of dosing, 4 mg/kg/day i.p.): 0.57 mm
- Change in Paw Thickness (mm) Mean ([3]; day 3 of dosing, 4 mg/kg/day i.p.): 0.47 mm
- Change in Paw Thickness (mm) Mean ([3]; day 4 of dosing, 4 mg/kg/day i.p.): −0.07 mm
- Change in Paw Thickness (mm) Mean ([3]; day 5 of dosing, 4 mg/kg/day i.p.): 0.03 mm
- Change in Paw Thickness (mm) Mean ([3]; day 6 of dosing, 4 mg/kg/day i.p.): −0.13 mm
- Change in Paw Thickness (mm) Mean ([3]; day 7 of dosing, 4 mg/kg/day i.p.): 0.04 mm
- Change in Paw Thickness (mm) Mean ([3]; day 8 of dosing, 4 mg/kg/day i.p.): −0.21 mm
- Percent level of Biomarker Tissue [c] Compared to Untreated Control, IL-1 AVG [6]: 16%
- Percent level of Biomarker Tissue [c] Compared to Untreated Control, MCP-1 AVG [7]: 5%
- Percent level of Biomarker Tissue [c] Compared to Untreated Control, MMP-9 AVG [8]: 35%
- Percent level of Biomarker Tissue [c] Compared to Untreated Control, RANKL AVG [9]: 10%
- Percent level of Biomarker Tissue [c] Compared to Untreated Control, IL-6 AVG [11]: 4%
